These are literature values, as cited in article PMC3461336 (Biomacromolecules, 2012).

The conditions of this data set: without dpA3.

Turning to `CC(=O)O[C@H]1C(=O)[C@@]2(C)[C@H]([C@H](OC(=O)c3ccccc3)[C@]3(O)C[C@H](OC(=O)[C@H](O)[C@@H](NC(=O)c4ccccc4)c4ccccc4)C(C)=C1C3(C)C)[C@]1(OC(C)=O)CO[C@@H]1C[C@@H]2O` [PAX, Paclitaxel], the “PAX solubility in aqueous solvents” value was under 0.1 µg/mL.
